# Assay results taken from PubChem BioAssay AID248 (DTP/NCI, 2004).
# Toxic doses and inconclusive results are not listed.
# System: L1210 leukemia ip in BDF1 mice, survival T/C
# Test: NCI In Vivo Anticancer Drug Screen. Data for tumor model L1210 Leukemia (intraperitoneal) in B6D2F1 (BDF1) mice
# Details: endpoint: mean survival time, higher = longer survival
# How it was run: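 Tumor was transplanted into mice, which were then dosed with test compound or vehicle alone. Survival was recorded for each group, and the treated figure was expressed relative to the control figure.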
# [1] = dose: 50.0 mg/kg/injection, schedule: Q01DX001 (ip), vehicle: carboxymethylcellulose (CMC)
# [2] = dose: 100.0 mg/kg/injection, schedule: Q01DX001 (ip), vehicle: carboxymethylcellulose (CMC)
# [3] = dose: 200.0 mg/kg/injection, schedule: Q01DX001 (ip), vehicle: carboxymethylcellulose (CMC)
# [4] = dose: 400.0 mg/kg/injection, schedule: Q01DX001 (ip), vehicle: carboxymethylcellulose (CMC)
# [5] = dose: 100.0 mg/kg/injection, schedule: Q04DX002 (ip), vehicle: saline
# [6] = dose: 400.0 mg/kg/injection, schedule: Q04DX002 (ip), vehicle: saline
# [7] = dose: 100.0 mg/kg/injection, schedule: Q01DX001 (ip), vehicle: saline
# [8] = dose: 200.0 mg/kg/injection, schedule: Q01DX001 (ip), vehicle: saline
# [9] = dose: 400.0 mg/kg/injection, schedule: Q01DX001 (ip), vehicle: saline
structure (smiles),measurement,setting,value
CCN(CC)c1ccc(-c2nc3ccccc3s2)cc1,T/C,"dose: 50.0 mg/kg/injection, schedule: Q04DX003 (ip), vehicle: Klucel (hydroxypropylcellulose) (HPC)",99 % of control
same,T/C,"dose: 100.0 mg/kg/injection, schedule: Q04DX003 (ip), vehicle: Klucel (hydroxypropylcellulose) (HPC)",94 % of control
same,T/C,"dose: 200.0 mg/kg/injection, schedule: Q04DX003 (ip), vehicle: Klucel (hydroxypropylcellulose) (HPC)",91 % of control
CCOC(=O)C(C)(CCOCc1ccccc1)NC(C)=O (stereo unspecified),T/C,[1],94 % of control
same,T/C,[2],96 % of control
same,T/C,[3],100 % of control
same,T/C,[4],91 % of control
CCCCC(CC)COP(OCC(CC)CCCC)OCC(CC)CCCC (stereo unspecified),T/C,"dose: 100.0 mg/kg/injection, schedule: Q04DX003 (ip), vehicle: saline with Tween-80",96 % of control
same,T/C,"dose: 200.0 mg/kg/injection, schedule: Q04DX003 (ip), vehicle: saline with Tween-80",100 % of control
same,T/C,"dose: 400.0 mg/kg/injection, schedule: Q04DX003 (ip), vehicle: saline with Tween-80",96 % of control
CC(C)(C)O[Si](OCC(F)(F)C(F)(F)C(F)(F)C(F)(F)C(F)(F)C(F)F)(OCC(F)(F)C(F)(F)C(F)(F)C(F)(F)C(F)(F)C(F)F)OC(C)(C)C,T/C,[1],100 % of control
same,T/C,[2],94 % of control
same,T/C,[3],94 % of control
same,T/C,[4],94 % of control
O=C1c2ccccc2CCC1C1(O)C(=O)Nc2ccccc21 (stereo unspecified),T/C,"dose: 50.0 mg/kg/injection, schedule: Q01DX009 (ip), vehicle: saline with Tween-80",104 % of control
same,T/C,"dose: 100.0 mg/kg/injection, schedule: Q01DX009 (ip), vehicle: saline with Tween-80",101 % of control
same,T/C,"dose: 200.0 mg/kg/injection, schedule: Q01DX009 (ip), vehicle: saline with Tween-80",93 % of control
Cc1ccc([N+](=O)[O-])cc1NC(=O)Sc1ccc(C(C)(C)C)cc1C,T/C,[5],101 % of control
same,T/C,"dose: 200.0 mg/kg/injection, schedule: Q04DX002 (ip), vehicle: saline",88 % of control
same,T/C,[6],101 % of control
CNC(C)=O,T/C,[7],100 % of control
same,T/C,"dose: 100.0 mg/kg/injection, schedule: Q01DX009 (ip), vehicle: saline",110 % of control
same,T/C,"dose: 125.0 mg/kg/injection, schedule: Q01DX Z (ip), vehicle: carboxymethylcellulose (CMC)",86 % of control
same,T/C,[8],97 % of control
same,T/C,"dose: 200.0 mg/kg/injection, schedule: Q01DX009 (ip), vehicle: saline",107 % of control
same,T/C,[9],95 % of control
same,T/C,"dose: 400.0 mg/kg/injection, schedule: Q01DX009 (ip), vehicle: saline",115 % of control
same,T/C,"dose: 500.0 mg/kg/injection, schedule: Q01DX Z (ip), vehicle: carboxymethylcellulose (CMC)",86 % of control
same,T/C,"dose: 1000.0 mg/kg/injection, schedule: Q01DX Z (ip), vehicle: carboxymethylcellulose (CMC)",110 % of control
O=C1CCOP(=O)(NCCCl)N1CCCl (stereo unspecified),T/C,[5],115 % of control
same,T/C,[6],175 % of control
CC1CCN(C(CC(=O)c2ccccc2)C(=O)c2ccccc2)CC1 (stereo unspecified),T/C,"dose: 50.0 mg/kg/injection, schedule: Q01DX001 (ip), vehicle: saline",104 % of control
same,T/C,[7],98 % of control
same,T/C,[8],102 % of control
same,T/C,[9],96 % of control
O=NN(CCCl)C(=O)Nc1ccc2c(c1)CCCC2,T/C,"dose: 31.0 mg/kg/injection, schedule: Q01DX001 (ip), vehicle: carboxymethylcellulose (CMC)",124 % of control
same,T/C,"dose: 84.0 mg/kg/injection, schedule: Q01DX001 (ip), vehicle: carboxymethylcellulose (CMC)",186 % of control
same,T/C,"dose: 119.0 mg/kg/injection, schedule: Q01DX001 (ip), vehicle: carboxymethylcellulose (CMC)",231 % of control
same,T/C,"dose: 125.0 mg/kg/injection, schedule: Q01DX001 (ip), vehicle: carboxymethylcellulose (CMC)",188 % of control
same,T/C,"dose: 178.0 mg/kg/injection, schedule: Q01DX001 (ip), vehicle: carboxymethylcellulose (CMC)",216 % of control
same,T/C,"dose: 187.0 mg/kg/injection, schedule: Q01DX001 (ip), vehicle: carboxymethylcellulose (CMC)",215 % of control
same,T/C,"dose: 238.0 mg/kg/injection, schedule: Q01DX001 (ip), vehicle: carboxymethylcellulose (CMC)",223 % of control
same,T/C,"dose: 250.0 mg/kg/injection, schedule: Q01DX001 (ip), vehicle: carboxymethylcellulose (CMC)",89 % of control
same,T/C,"dose: 357.0 mg/kg/injection, schedule: Q01DX001 (ip), vehicle: carboxymethylcellulose (CMC)",101 % of control
CN(C)/C=C(\C#N)C=O,T/C,"dose: 75.0 mg/kg/injection, schedule: Q01DX001 (ip), vehicle: saline",103 % of control
same,T/C,"dose: 150.0 mg/kg/injection, schedule: Q01DX001 (ip), vehicle: saline",101 % of control
